Earlier results, collected in EP1693447A1, “Procedure for the preparation of superoxide dismutase” (Gnosis S.p.A., priority 2005, dated 2006).

System: superoxide dismutase
Conditions: SOD currently on the market

## Bovine liver - PEG superoxide dismutase - freeze-dried powder: type of SOD currently on the market, PEG superoxide dismutase
  superoxide dismutase units/mg of protein: Bovine liver - PEG superoxide dismutase - freeze-dried powder ≥ 1,350 units/mg of protein
